The source of these data is PubChem BioAssay (NCI).

Each structure is given as a SMILES string.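 How tested: cells in 96-well plates exposed to compound for 48 hours at five concentrations. GI50: concentration for 50% inhibition of growth. The concentration for full growth arrest is given as TGI.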

Among the test systems are UACC-62 melanoma; IGROV1 ovarian; SK-OV-3 ovarian; OVCAR-5 ovarian; HL-60(TB) leukemia; SN12C renal; HT29 colon; HOP-62 NSCLC; UO-31 renal; NCI-H226 lung.
Experiment in all cases: NCI anticancer screen, dose series, 48 h

Regarding `O=C/C=C/c1ccco1`, the TGI with UACC-62 melanoma, in the assay on IGROV1 ovarian, in the assay on SK-OV-3 ovarian, with OVCAR-5 ovarian, in the assay with HL-60(TB) leukemia and in the assay with SN12C renal was over 100 µM in each case. In addition, the TGI in the assay on HT29 colon, in the assay on HOP-62 NSCLC, in the assay on UO-31 renal and in the assay on NCI-H226 lung was over 100 µM throughout.

For `COc1cc(C2C(C(=O)O)=C(COC(C)=O)Oc3cc4c(cc32)OCO4)cc(OC)c1OC` (stereo not drawn), the TGI in the assay with UACC-62 melanoma, in the assay with IGROV1 ovarian, in the assay with SK-OV-3 ovarian, in the assay with OVCAR-5 ovarian, with HL-60(TB) leukemia and in the assay on SN12C renal was over 100 µM throughout. Moreover, the TGI in the assay on HT29 colon, in the assay with HOP-62 NSCLC and in the assay on UO-31 renal was over 100 µM each time.

Turning to `O=C1/C(=C/c2ccc(Cl)cc2)N=C(c2ccccc2)N1CCc1cccs1`, the GI50 with UACC-62 melanoma was 13.8 µM; in the assay on IGROV1 ovarian, 36.7 µM; with SK-OV-3 ovarian it was 55.9 µM; in the assay on OVCAR-5 ovarian, 61.2 µM; in the assay with HL-60(TB) leukemia it was 21.4 µM; in the assay on SN12C renal, 21.1 µM. For the same compound, the values for the GI50 in the assay with HT29 colon, in the assay on HOP-62 NSCLC and with NCI-H226 lung were 20.3 µM, 47.3 µM and 21.2 µM, respectively. Besides, the TGI was 63.2 µM in the assay on UACC-62 melanoma; over 100 µM with IGROV1 ovarian; over 100 µM with SK-OV-3 ovarian; over 100 µM in the assay with OVCAR-5 ovarian; 90.2 µM with HL-60(TB) leukemia; over 100 µM in the assay on SN12C renal. The TGI in the assay on HT29 colon, with HOP-62 NSCLC and with NCI-H226 lung was over 100 µM in each case.

Take `N=C(N)SCc1ccc(Cl)cc1Cl` (tested in a mixture with another compound): the TGI in the assay with UACC-62 melanoma was found to be 28.3 µM; in the assay with IGROV1 ovarian it was 42.9 µM; in the assay with SK-OV-3 ovarian it was 40.2 µM; in the assay on OVCAR-5 ovarian, 35.7 µM; in the assay with HL-60(TB) leukemia, 22.4 µM; in the assay on SN12C renal, 27 µM. Moreover, the TGI stood at 29.2 µM in the assay with HT29 colon, 30.2 µM with HOP-62 NSCLC, 23.1 µM in the assay on UO-31 renal and 40.9 µM in the assay with NCI-H226 lung.

Take `CNC(=O)N(C)COC`: the TGI in the assay with UACC-62 melanoma, with IGROV1 ovarian, in the assay on SK-OV-3 ovarian, in the assay with OVCAR-5 ovarian, in the assay with HL-60(TB) leukemia and in the assay on SN12C renal was over 100 µM throughout. Also, the TGI in the assay on HT29 colon, in the assay on HOP-62 NSCLC, in the assay on UO-31 renal and in the assay with NCI-H226 lung was over 100 µM in each case.

Take `O=C(O)c1cn2c3c(cc(N4CCN(CCO)CC4)cc3c1=O)SCC2`: the TGI with UACC-62 melanoma, in the assay with IGROV1 ovarian, in the assay on SK-OV-3 ovarian, in the assay on OVCAR-5 ovarian, in the assay with HL-60(TB) leukemia and with SN12C renal was over 100 µM each time. Besides, the TGI in the assay with HT29 colon, with HOP-62 NSCLC, with UO-31 renal and in the assay with NCI-H226 lung was over 100 µM each time.

Turning to `COc1cc(/C=C/C(=O)c2c(C)nc3ccccc3c2C)ccc1OCCCOc1cc2c(cc1OC)C(=O)N1CCC[C@H]1C=N2`, the GI50 is 0.017 µM in the assay on UACC-62 melanoma; 0.064 µM with SK-OV-3 ovarian; 0.03 µM in the assay with OVCAR-5 ovarian; 0.0356 µM with HL-60(TB) leukemia; 0.0353 µM in the assay on SN12C renal; 0.028 µM in the assay on HT29 colon. Also, the GI50 in the assay with HOP-62 NSCLC is 0.0303 µM; in the assay with UO-31 renal, 0.0583 µM; in the assay on NCI-H226 lung, 0.0227 µM. Also, the TGI in the assay with UACC-62 melanoma was found to be 0.0321 µM; with SK-OV-3 ovarian, 1.13 µM; in the assay with OVCAR-5 ovarian, 0.0868 µM; with SN12C renal it was 0.327 µM; with HT29 colon it was 3.03 µM; in the assay on HOP-62 NSCLC it was 0.0609 µM. In addition, the TGI in the assay on UO-31 renal was 0.817 µM; with NCI-H226 lung it was 0.0616 µM.

As for `CN(C)c1ccc(C(Cc2ccc3ccccc3n2)Cc2ccc3ccccc3n2)cc1`, the GI50 was 3.77 µM in the assay on UACC-62 melanoma; 2.57 µM in the assay with IGROV1 ovarian; 3.83 µM in the assay with HT29 colon; 5.84 µM in the assay on HOP-62 NSCLC; 1.96 µM in the assay with UO-31 renal; 4.4 µM with NCI-H226 lung. Also, the TGI with UACC-62 melanoma, in the assay with IGROV1 ovarian, in the assay on HT29 colon, in the assay with HOP-62 NSCLC, in the assay on UO-31 renal and with NCI-H226 lung was over 100 µM each time.

As for `CCCCCCCCCCCCCC[n+]1ccc2c(C)c3c(c(C)c2c1)c1cc(O)ccc1n3CC`, the GI50 was 0.468 µM in the assay on UACC-62 melanoma; 0.496 µM with IGROV1 ovarian; 0.28 µM in the assay on SK-OV-3 ovarian; 0.497 µM in the assay on OVCAR-5 ovarian; 0.378 µM in the assay with HL-60(TB) leukemia; 0.341 µM in the assay with SN12C renal. Also, the GI50 in the assay on HOP-62 NSCLC is 0.408 µM; in the assay on UO-31 renal, 1.39 µM; in the assay on NCI-H226 lung, 0.418 µM. For the same compound, the TGI in the assay on UACC-62 melanoma is 1.87 µM; in the assay on IGROV1 ovarian, 2.06 µM; with SK-OV-3 ovarian, 0.849 µM; with OVCAR-5 ovarian it was 1.85 µM; in the assay on HL-60(TB) leukemia, 1.95 µM; in the assay on SN12C renal, 1.31 µM. The TGI was found to be 1.94 µM with HOP-62 NSCLC, 4.57 µM in the assay with UO-31 renal and 1.96 µM in the assay with NCI-H226 lung.

On to `CO/N=C(\C)COc1ccc2c(=O)c(-c3ccccc3)coc2c1`, for which the GI50 was 26.3 µM in the assay on UACC-62 melanoma; 24.7 µM in the assay with IGROV1 ovarian; 21.9 µM in the assay with SK-OV-3 ovarian; 3.23 µM with OVCAR-5 ovarian; 37.7 µM in the assay with HL-60(TB) leukemia; 30.1 µM in the assay on SN12C renal. The GI50 with HT29 colon is over 100 µM; in the assay on HOP-62 NSCLC, 17.8 µM; in the assay with UO-31 renal, 22.2 µM; with NCI-H226 lung it was 36.4 µM. Also, the TGI is 93.6 µM in the assay with UACC-62 melanoma; 77.9 µM in the assay with IGROV1 ovarian; 80 µM in the assay with SK-OV-3 ovarian; 43.8 µM with OVCAR-5 ovarian; over 100 µM with HL-60(TB) leukemia; 68.9 µM in the assay with SN12C renal. Besides, the TGI in the assay with HT29 colon was over 100 µM; in the assay on HOP-62 NSCLC it was 46.6 µM; with UO-31 renal, 46.3 µM; in the assay with NCI-H226 lung, over 100 µM.

Regarding `CC(C)C1=CCC2C(=C1)CCC1C(C)(C(=O)O)CCCC21C` (stereo not drawn) (tested in a mixture with another compound), the TGI with UACC-62 melanoma, in the assay on IGROV1 ovarian, in the assay with SK-OV-3 ovarian, in the assay on OVCAR-5 ovarian, in the assay on HL-60(TB) leukemia and in the assay with SN12C renal was over 100 µM throughout. The TGI in the assay on HT29 colon, in the assay on HOP-62 NSCLC, with UO-31 renal and in the assay with NCI-H226 lung was over 100 µM in each case.

As for `CCc1ccc2nc(-c3ccc(O)cc3)sc2c1`, the TGI worked out at 25.1 µM with UACC-62 melanoma; 29.4 µM in the assay on IGROV1 ovarian; 32.3 µM with SK-OV-3 ovarian; 28.6 µM in the assay on OVCAR-5 ovarian; 10.2 µM in the assay on HL-60(TB) leukemia; 27.7 µM with SN12C renal. In addition, the TGI was 30.2 µM in the assay with HT29 colon, 24.4 µM with UO-31 renal and 30.1 µM with NCI-H226 lung.

In the case of `N#Cc1c(N)sc2c1-c1ccccc1OC2`, the TGI in the assay on UACC-62 melanoma is over 100 µM; in the assay on IGROV1 ovarian it was over 100 µM; in the assay with SK-OV-3 ovarian it was over 100 µM; in the assay on OVCAR-5 ovarian it was over 100 µM; in the assay on HL-60(TB) leukemia, 82.1 µM; in the assay on SN12C renal, 68.6 µM. Besides, the TGI is over 100 µM in the assay with HT29 colon, over 100 µM in the assay with HOP-62 NSCLC, 70 µM in the assay on UO-31 renal and over 100 µM with NCI-H226 lung.
